Entries after “also recorded” stand apart in the source; their conditions may differ.
How the values were obtained:
Balb/C mice [1] = assay: ELISA for subclass (IgG1/IgG2a) of HBsAg specific antibody; type: in vivo; conditions: Example 6; HBsAg specific antibody in serum; FIG. 15
Balb/C mice [2] = assay: g-IFN ELISPOT after PMID with HBV sAg/cAg plasmid; type: in vivo
Balb/C mice [3] = conditions: Example 2; prime and boost, HBsAg plasmid with HCMV promoter; FIG. 3
Balb/C mice [4] = assay: IL-4 ELISPOT after PMID with HBV sAg/cAg plasmid; type: in vivo
Balb/C mice [5] = assay: CD8 IFN-g ELISA of spleen cells after HBsAg DNA vaccine immunization; conditions: Example 2; prime and boost; FIG. 4
Balb/C mice [6] = assay: Anti-sAg and anti-cAg antibody ELISAs after PMID with HBV sAg/cAg plasmid; type: in vivo; conditions: Example 7; either HBV antigen (sAg, cAg); data not shown
Balb/C mice [7] = assay: IFN-g ELISPOT of spleen cells after HBsAg DNA vaccine immunization; conditions: Example 2; prime and boost; FIG. 4
[8] = Example 7, summary of both experiments

Row | Compound | ratio of IgG1/IgG2a (Balb/C mice [1]) | g-IFN secretion (Balb/C mice [2]; Example 7, first experiment, highest dose of DNA, delivered right before or right after PMID) | g-IFN secretion (Balb/C mice [2]; Example 7, first experiment, highest dose of DNA, given 24 hours after PMID) | g-IFN secretion (Balb/C mice [2]; Example 7, first experiment, low doses of DNA, administration 24 hours post PMID compared with other time points) | g-IFN secretion (Balb/C mice [2]; Example 7, first experiment, low doses of HBV-encoding DNA, right before, right after or 24 hours post PMID) | g-IFN response with class I-restricted peptide (CD8+ cells) (Balb/C mice [2]; Example 7, first experiment, not shown) | frequency of cells which secreted g-IFN in response to antigen (Balb/C mice [2]; Example 7, first experiment, sAg peptide library (primarily CD4+ cells), 2 weeks post prime, FIG. 16) | IFN-g ELISPOT response (Balb/C mice [2]; [8]) | optimal time point for augmenting g-IFN-secreting cells (Balb/C mice [2]; Example 7, time of administration relative to PMID) | Antibody levels (Balb/C mice [3]) | IL-4 secretion, as measured by ELISPOT assay (Balb/C mice [4]; Example 7, first experiment (prime only), not shown) | EL-4 ELISPOTs (Balb/C mice [4]; [8]) | cellular response, IFN-g ELISA (Balb/C mice [5]) | antibody titers (Balb/C mice [6]) | cellular response, ELISPOTs (Balb/C mice [7])
1 | CCCCC[C@H](O)/C=C/[C@H]1[C@H](O)CC(=O)[C@@H]1C/C=C\CCCC(=O)O [PGE2] | does not have the same effect overall |  |  |  |  |  |  |  |  |  |  |  |  |  | 
2 | CC(C)Cn1cnc2c(N)nc3ccccc3c21 [imiquimod, 1-(2-methyl-propyl)-1H-imidazo[4,5-c]quinolin-4-amine] |  | slightly inhibitory | augments PMID | most effective | enhances g-IFN secretion | comaparable responses | enhancement of the frequency of cells which secreted g-IFN | primarily enhanced; also recorded: augments the frequency of g-IFN-secreting cells | about a day and upto 7 days after PMID | strong reduction in antibody levels | no effect | little effect | enhanced the responses | little effect; also recorded: did not enhance antibody responses | enhanced the responses
